Reference: US20250136618A1, “ANTIBIOTIC PYRAZINOTHIAZINE DERIVATIVES AND PROCESS OF PREPARATION THEREOF” (Bugworks Research India PVT Ltd, priority 2021, published 2025)
In brackets after ≈: the same amount, converted by molar mass.

How the values were obtained:
Format in all cases: cell-based
[1] = test system: CHO-K1 cells; assay: In-vitro micronucleus assay
Description: Genetic toxicology studies were performed on the compounds of the present disclosure to assess their ability to cause DNA damage. The in-vitro micronucleus assay measured the concentration (μM) of the compound at which micronuclei formation occurred. A micronuclei formation at lower concentration indicates more genetic damage or genotoxicity.
Micronucleus formation is a hallmark of genotoxicity, and the micronucleus assay is an important component of genotoxicity screening. Micronuclei are chromatin-containing bodies that represent fragments or even whole chromosomes that were not incorporated into a daughter cell nucleus at mitosis. The purpose of the assay is to detect agents that induce chromosome damage leading to the induction of micronuclei in interphase cells. The in vitro micronucleus assay was conducted in CHO-K1 cells according to the procedure described by Diaz, D et al [Mutat Res. 630(1-2):1-13. […] The formation of the micronucleus is identified by image-based high content analysis from binucleated cells.

[2] = molecular target: hERG potassium channel (Homo sapiens (Human), UniProt Q12809); assay: hERG inhibition assay (Qpatch HTX automated electrophysiology); details: CHO cell line expressing hERG, whole-cell patch clamp
hERG potassium channel, sequence (Q12809 whole entry): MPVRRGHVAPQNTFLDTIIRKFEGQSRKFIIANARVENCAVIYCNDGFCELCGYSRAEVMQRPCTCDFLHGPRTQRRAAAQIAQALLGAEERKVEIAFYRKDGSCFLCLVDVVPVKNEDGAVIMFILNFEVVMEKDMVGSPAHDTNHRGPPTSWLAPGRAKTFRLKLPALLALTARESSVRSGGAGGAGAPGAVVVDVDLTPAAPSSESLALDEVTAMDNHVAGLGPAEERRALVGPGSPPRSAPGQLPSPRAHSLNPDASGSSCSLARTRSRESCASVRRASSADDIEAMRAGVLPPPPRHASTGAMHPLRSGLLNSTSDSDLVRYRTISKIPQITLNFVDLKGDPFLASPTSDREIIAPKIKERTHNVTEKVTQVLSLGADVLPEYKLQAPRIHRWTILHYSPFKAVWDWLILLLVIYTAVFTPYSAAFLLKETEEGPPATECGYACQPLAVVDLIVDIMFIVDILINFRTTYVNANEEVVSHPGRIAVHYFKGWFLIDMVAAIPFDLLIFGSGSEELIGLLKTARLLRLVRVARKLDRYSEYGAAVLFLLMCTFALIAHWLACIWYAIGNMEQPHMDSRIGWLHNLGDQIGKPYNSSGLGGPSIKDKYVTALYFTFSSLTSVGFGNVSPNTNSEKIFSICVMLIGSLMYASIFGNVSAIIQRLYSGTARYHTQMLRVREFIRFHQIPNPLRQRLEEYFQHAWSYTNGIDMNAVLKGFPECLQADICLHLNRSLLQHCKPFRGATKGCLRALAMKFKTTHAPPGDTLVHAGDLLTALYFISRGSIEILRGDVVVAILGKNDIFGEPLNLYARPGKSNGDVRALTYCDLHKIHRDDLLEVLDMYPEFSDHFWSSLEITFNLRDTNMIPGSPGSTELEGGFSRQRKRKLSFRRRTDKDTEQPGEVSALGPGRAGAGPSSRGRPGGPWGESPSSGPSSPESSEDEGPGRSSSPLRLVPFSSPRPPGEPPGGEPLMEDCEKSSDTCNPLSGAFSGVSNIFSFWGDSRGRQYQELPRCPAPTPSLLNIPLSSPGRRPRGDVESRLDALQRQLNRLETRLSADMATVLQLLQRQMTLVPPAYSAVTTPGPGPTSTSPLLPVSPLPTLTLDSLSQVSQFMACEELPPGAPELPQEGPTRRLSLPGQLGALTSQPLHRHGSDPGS
Description: Electrophysiological recordings were made from a Chinese Hamster Ovary cell line stably expressing the full-length hERG potassium channel. Single cell ionic currents were measured in whole-cell patch clamp configuration at room temperature (21-23° C.) using the Qpatch HTX platform (Sophion). Intracellular solution contained (mM): 120 KF, 20 KCl, 10 EGTA, 10 HEPES and was buffered to pH 7.3. […] Cells were clamped at a holding potential of −80 mV. Cells were stepped to +20 mV for 2 s then −40 mV for 3 s before returning to the holding potential. […] Compounds were then incubated for 2 minutes prior to a second measurement of ion channel current using an identical pulse train.

[3] = test system: Pseudomonas aeruginosa ATCC 27853; assay: Minimum Inhibitory Concentration (MIC) in LB media; details: Pseudomonas aeruginosa, ATCC27853
Description: (§1) The compounds of Formula Ia and Formula Ib are of interest due to their potent antibacterial effects. The ability of the compounds disclosed herein to achieve an antibacterial effect may be evaluated with regard to their ability to inhibit the growth of bacterial species like Escherichia coli ATCC 25922, Staphylococcus aureus ATCC 29213, Klebsiella pneumoniae ATCC 13883, Acinetobacter baumannii ATCC 19606, Pseudomonas aeruginosa ATCC 27853 and Enterococcus faecalis ATCC 29212 using an assay based on the following Minimum Inhibitory Concentration (MIC) protocol:
(§2) The test bacteria were grown in Luria Bertani Broth (HIMEDIA M1245), 25 g of the powder was dissolved in 1000 ml distilled water and sterilized by autoclaving at 15 lbs pressure (121° C.) for 20 minutes. The medium sterility was checked by incubating at 37° C. for a period of 48 h. Bacterial cultures that were stored as glycerol stocks at −80° C. were subcultured on LB agar plates to obtain isolated colonies. A single colony of each strain was cultured in LB broth. The cultures were incubated at 37° C., 200 rpm till they reached an optical density (OD at 600 nm) of 0.8 to 1. This log phase culture was diluted in LB broth to a cell number of 5-8*10^5 CFU/mL to be used as inoculum for MIC experiments. Test compounds were dissolved in dimethyl sulfoxide (DMSO) to a stock concentration of 4 mg/ml. A two-fold dilution series of this DMSO stock was prepared in a 96 well V bottom microtitre plate from rows A to H. A 3 μL volume of these dilutions are transferred to a 96-well flat bottom microtitre assay plate. Controls to monitor the effects of DMSO and media sterility were included. Each well was inoculated with 150 μL of the above diluted culture. The plates were incubated at 37° C. overnight in a humidified incubator. The following morning, the plates were read using a Spectrophotometer at 600 nm wavelength. […] The antibacterial activity (MIC) determined against representative gram-positive (S. aureus, E. faecalis) and gram-negative (E. coli, Aeruginosa, K. pneumoniae, and A. baumannii) pathogen are reported Table 1.

[4] = test system: Staphylococcus aureus ATCC 29213; assay: Minimum Inhibitory Concentration (MIC) in LB media; details: Staphylococcus aureus, ATCC29213, read-out: Minimum Inhibitory Concentration S. aureus ATCC 29213
Description: as §1, §2

[5] = test system: Escherichia coli ATCC 25922; assay: Minimum Inhibitory Concentration (MIC) in LB media; details: Escherichia coli, ATCC25922, read-out: Minimum Inhibitory Concentration E. coli ATCC 25922
Description: as §1, §2

[6] = test system: Enterococcus faecalis ATCC 29212; assay: Minimum Inhibitory Concentration (MIC) in LB media; details: Enterococcus faecalis, ATCC29212, read-out: Minimum Inhibitory Concentration E. faecalis ATCC 29212
Description: as §1, §2

[7] = test system: Acinetobacter baumannii ATCC 19606; assay: Minimum Inhibitory Concentration (MIC) in LB media; details: Acinetobacter baumannii, ATCC19606
Description: as §1, §2

[8] = test system: Klebsiella pneumoniae ATCC 13883; assay: Minimum Inhibitory Concentration (MIC) in LB media; details: Klebsiella pneumoniae, ATCC13883, read-out: Minimum Inhibitory Concentration K. pneumoniae ATCC 13883
Description: as §1, §2

[9] = test system: Enterobacter cloacae; assay: MIC90 determination, clinical strains (CLSI); details: N=26
[10] = test system: Providencia rettgeri, P. stuartii; assay: MIC90 determination, clinical strains (CLSI); details: N=12
[11] = test system: Proteus mirabilis; assay: MIC90 determination, clinical strains (CLSI); details: N=12
[12] = test system: Acinetobacter baumannii; assay: MIC90 determination, clinical strains (CLSI); details: N=38
[13] = test system: Escherichia coli; assay: MIC90 determination, clinical strains (CLSI); details: N=38
[14] = test system: Klebsiella pneumoniae; assay: MIC90 determination, clinical strains (CLSI); details: N=86
[15] = test system: Pseudomonas aeruginosa; assay: MIC90 determination, clinical strains (CLSI); details: N=34
[16] = test system: Morganella morganii; assay: MIC90 determination, clinical strains (CLSI); details: N=11
[17] = test system: Serratia marcescens; assay: MIC90 determination, clinical strains (CLSI); details: N=15
[18] = test system: Citrobacter freundii; assay: MIC90 determination, clinical strains (CLSI); details: N=19
[19] = test system: Klebsiella aerogenes, K. oxytoca; assay: MIC90 determination, clinical strains (CLSI); details: N=17

Row | SMILES | genotoxicity risk (in words) [1] | % (in-vitro micronucleus assay) ([1]; Chinese hamster) [%] | In vitro micronucleus forming concentration ([1]; Chinese hamster) [µM] | IC50 [2] [µM] | MIC [3] [µg/mL] | MIC [4] [µg/mL] | MIC [5] [µg/mL] | MIC [6] [µg/mL] | MIC [7] [µg/mL] | MIC [8] [µg/mL] | other results
1 | [2H]C([2H])([2H])N1C(=O)CNc2ccc(OCCNCC3CN(c4cnc5c(n4)NC(=O)CS5)C(=O)O3)nc21 (stereo in doubt) [Compound 9, (R)-5-(((2-((4-(methyl-d3)-3-oxo-1,2,3,4-tetrahydropyrido[2,3-b]pyrazin-6-yl)oxy)ethyl)amino)methyl)-3-(3-oxo-3,4-dihydro-2H-pyrazino[2,3-b][1,4]thiazin-6-yl) oxazolidin-2-one] | completely devoid of any genotoxicity risk | 0.51 | >1000 | 141 | 1 (≈ 2.04 µM) | < 0.015 | 0.06 (≈ 0.123 µM) | 0.03 (≈ 0.0613 µM) | 0.03 (≈ 0.0613 µM) | 0.06 (≈ 0.123 µM) | –
2 | O=C(O)c1cn(C2CC2)c2cc(N3CCNCC3)c(F)cc2c1=O [Ciprofloxacin, reference compound] | – | – | – | – | 0.1 (≈ 0.302 µM) | 0.4 (≈ 1.21 µM) | 0.012 (≈ 0.0362 µM) | 0.4 (≈ 1.21 µM) | 0.4 (≈ 1.21 µM) | 0.05 (≈ 0.151 µM) | –
3 | CN1C(=O)CNc2ccc(OCCNC[C@@H]3CN(c4cnc5c(n4)NC(=O)CS5)C(=O)O3)nc21 [Compound 5, (R)-5-(((2-((4-methyl-3-oxo-1,2,3,4-tetrahydropyrido[2,3-b]pyrazin-6-yl)oxy)ethyl)amino)methyl)-3-(3-oxo-3,4-dihydro-2H-pyrazino[2,3-b][1,4]thiazin-6-yl)oxazolidin-2-one] | completely devoid of any genotoxicity risk | 0.5 | >1000 | > 300 | 1 (≈ 2.06 µM) | < 0.015 | 0.03 (≈ 0.0617 µM) | 0.125 (≈ 0.257 µM) | 0.06 (≈ 0.123 µM) | 0.06 (≈ 0.123 µM) | micronucleus formation (in words) [1]: did not induce micronucleus formation
4 | CN1C(=O)CNc2ccc(OCCNC[C@H]3CN(c4cnc5c(n4)NC(=O)CS5)C(=O)O3)nc21 [Compound 6, (S)-5-(((2-((4-methyl-3-oxo-1,2,3,4-tetrahydropyrido[2,3-b]pyrazin-6-yl)oxy)ethyl)amino)methyl)-3-(3-oxo-3,4-dihydro-2H-pyrazino[2,3-b][1,4]thiazin-6-yl)oxazolidin-2-one] | completely devoid of any genotoxicity risk | 0.4 | >1000 | > 300 | 0.5 (≈ 1.03 µM) | < 0.015 | 0.06 (≈ 0.123 µM) | 0.06 (≈ 0.123 µM) | 0.06 (≈ 0.123 µM) | 0.06 (≈ 0.123 µM) | micronucleus formation (in words) [1]: did not induce micronucleus formation
5 | CN1C(=O)CNc2cc(F)c(OCCNC[C@@H]3CN(c4cnc5c(n4)NC(=O)CS5)C(=O)O3)nc21 [Compound 7, (R)-5-(((2-((7-fluoro-4-methyl-3-oxo-1,2,3,4-tetrahydropyrido[2,3-b]pyrazin-6-yl)oxy)ethyl)amino)methyl)-3-(3-oxo-3,4-dihydro-2H-pyrazino[2,3-b][1,4]thiazin-6-yl)oxazolidin-2-one] | completely devoid of any genotoxicity risk | 0.41 | >1000 | > 300 | 1 (≈ 1.98 µM) | < 0.015 | 0.03 (≈ 0.0595 µM) | 0.06 (≈ 0.119 µM) | 0.03 (≈ 0.0595 µM) | 0.06 (≈ 0.119 µM) | –
6 | CN1C(=O)CNc2cc(F)c(OCCNC[C@H]3CN(c4cnc5c(n4)NC(=O)CS5)C(=O)O3)nc21 [Compound 8, (S)-5-(((2-((7-fluoro-4-methyl-3-oxo-1,2,3,4-tetrahydropyrido [2,3-b]pyrazin-6-yl)oxy)ethyl)amino)methyl)-3-(3-oxo-3,4-dihydro-2H-pyrazino[2,3-b][1,4]thiazin-6-yl)oxazolidin-2-one] | completely devoid of any genotoxicity risk | 0.5 | >1000 | > 300 | 1 (≈ 1.98 µM) | < 0.015 | 0.03 (≈ 0.0595 µM) | 0.125 (≈ 0.248 µM) | 0.06 (≈ 0.119 µM) | 0.06 (≈ 0.119 µM) | –
7 | C[C@@H](O)[C@H]1C(=O)N2C(C(=O)O)=C(S[C@@H]3CN[C@H](C(=O)N(C)C)C3)[C@H](C)[C@H]12 [Meropenem, reference compound] | – | – | – | – | – | – | – | – | – | – | MIC 90 Enterobacter cloacae [9]: 16 µg/mL (≈ 41.7 µM); MIC 90 Providencia rettgeri, P. stuartii [10]: 4 µg/mL (≈ 10.4 µM); MIC 90 Proteus mirabilis [11]: 1 µg/mL (≈ 2.61 µM); MIC 90 Acinetobacter baumannii [12]: >8 µg/mL; MIC 90 Escherichia coli [13]: 2 µg/mL (≈ 5.22 µM); MIC 90 Klebsiella pneumoniae [14]: 16 µg/mL (≈ 41.7 µM); MIC 90 Pseudomonas aeruginosa [15]: 16 µg/mL (≈ 41.7 µM); MIC 90 Morganella morganii [16]: 0.12 µg/mL (≈ 0.313 µM); MIC 90 Serratia marcescens [17]: 16 µg/mL (≈ 41.7 µM); MIC 90 Citrobacter freundii [18]: 8 µg/mL (≈ 20.9 µM); MIC 90 Klebsiella aerogenes, K. oxytoca [19]: 16 µg/mL (≈ 41.7 µM)
8 | CO[C@@]12[C@H](COC(N)=O)C3=C(C(=O)C(C)=C(N)C3=O)N1C[C@@H]1N[C@@H]12 [Mitomycin C, reference compound] | – | – | – | – | – | – | – | – | – | – | % (in-vitro micronucleus assay) ([1]; CHO-K1 cells): 1.98%; In vitro micronucleus forming concentration ([1]; CHO-K1 cells): 0.300 µM
